From US9446127B2, “Compositions including androgen receptor degradation (ARD) enhancers and methods of prophylactic or therapeutic treatment of skin disorders and hair loss” (AndroScience Corporation, priority 2007, dated 2016) come the findings set out here.

Several values for one entry are separate records, joined by “and”; a condition that tells them apart may be missing. Equal entries are not always repeated.

The target of assay [1] is T1, mutant androgen receptor poly Q49 (GFPARQ49) (Homo sapiens, UniProt P10275, INS80QQQQQQQQQQQQQQQQQQQQQQQQQQ).
T1 construct: GFP (green fluorescent protein); expressed in transfected cells; host or cells: COS-1 (monkey kidney)
Kind of assay: Fluorescence microscopy of COS-1 cells transfected with GFPARQ49. The assay is classed as cell-based. The settings on record: COS-1, 5 micromolar. Here is the method:
Monkey kidney COS-1 cells were plated at a density of 3×10^4 cells per 0.5-milliliter volume onto alcohol-cleaned and sterilized cover slips placed in 35-millimeter suspension culture dishes containing Dulbecco's modified Eagle's (DME) medium containing 10% FBS. The cells were transfected with plasmids containing the wild type AR (GFPAR) or poly Q49 (plasmid GFPARQ49) mutant androgen receptor and green fluorescent protein (GFP) as a reporter. For each coverslip, 12.3 microliters SuperFect was added to 3.075 micrograms plasmid in 102.5 microliters DME medium (to give a 1:4 ratio of DNA to SuperFect reagent); the mixture was vortexed briefly, and the complex allowed to form over 15 minutes. Each mixture then received 897 microliters CD/DME and was mixed gently. The resulting 1-milliliter volumes were added to the dishes containing the coverslips (final plasmid concentration was […] per dish). Cells were allowed to incubate with the transfection solution for 5 hours, then the medium was changed to fresh 1.5 milliliters CD/DME medium with either vehicle (DMSO) only added or ASC-J9 (final concentration 5 micromolar). […] The coverslips were air-dried, mounted on slides with a glycerol-based mounting agent, and stored at 4 degrees Celsius if necessary prior to observation with fluorescence microscopy. […]

Assay [2] deals with T2, androgen receptor (AR) (Homo sapiens, UniProt P10275, T878A).
T2 construct: endogenous in cells; host or cells: LNCaP
T2 sequence (P10275 1-920 T878A): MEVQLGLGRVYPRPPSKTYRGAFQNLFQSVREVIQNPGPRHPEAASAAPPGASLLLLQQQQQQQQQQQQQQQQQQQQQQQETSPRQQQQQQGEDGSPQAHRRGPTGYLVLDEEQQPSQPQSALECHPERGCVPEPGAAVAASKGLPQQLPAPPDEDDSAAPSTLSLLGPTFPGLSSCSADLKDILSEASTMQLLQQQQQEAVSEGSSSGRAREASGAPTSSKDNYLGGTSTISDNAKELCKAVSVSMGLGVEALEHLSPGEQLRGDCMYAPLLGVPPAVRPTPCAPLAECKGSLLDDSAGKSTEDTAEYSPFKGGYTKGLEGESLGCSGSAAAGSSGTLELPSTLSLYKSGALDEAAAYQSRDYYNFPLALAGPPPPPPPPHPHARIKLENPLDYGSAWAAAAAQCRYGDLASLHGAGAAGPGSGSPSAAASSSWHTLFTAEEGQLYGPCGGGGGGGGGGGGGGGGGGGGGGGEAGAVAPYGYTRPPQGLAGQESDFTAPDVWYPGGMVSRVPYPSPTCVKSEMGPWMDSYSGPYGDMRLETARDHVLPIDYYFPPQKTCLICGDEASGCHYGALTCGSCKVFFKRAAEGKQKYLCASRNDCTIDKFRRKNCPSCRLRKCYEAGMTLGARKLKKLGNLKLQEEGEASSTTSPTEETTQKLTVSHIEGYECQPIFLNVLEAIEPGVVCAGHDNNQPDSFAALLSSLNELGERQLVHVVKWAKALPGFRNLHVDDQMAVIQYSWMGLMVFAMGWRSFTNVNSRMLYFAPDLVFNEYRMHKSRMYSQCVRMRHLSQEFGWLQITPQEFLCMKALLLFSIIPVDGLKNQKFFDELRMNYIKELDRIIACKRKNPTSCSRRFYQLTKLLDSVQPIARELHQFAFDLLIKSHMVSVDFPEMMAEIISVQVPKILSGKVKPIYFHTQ
Kind of assay: Western blot analysis of AR expression in LNCaP cells. The assay is classed as cell-based. Background: In western blotting, separated proteins are transferred to a membrane and probed.
Text: Briefly, cells (for example, LNCap cells) are harvested either in 2× sodium dodecyl sulfate (SDS) loading buffer or in radioimmunoprecipitation assay (RIPA) lysis buffer (see “Antibodies: A Laboratory Manual”, E. Harlow and D. Lane, Cold Spring Harbor Laboratory, 1988) containing 10 micrograms/milliliter of benzamidine, 10 micrograms/milliliter of trypsin inhibitor, and 1 millimolar of phenylmethylsulfonyl fluoride (PMSF). Total protein (40 micrograms/sample, or as desired) from cell lysate is separated on a SDS-PAGE gel. After separation, proteins are transferred from the gel to a nitrocellulose membrane following standard Western blot procedures. The membrane is blocked with a suitable blocking agent (such as 10% non-fat milk in phosphate-buffered saline supplemented with 0.1% Tween-20 (PBST)) to reduce non-specific binding overnight. The membrane is incubated with a suitable primary antibody specific for human AR (for example, anti-human AR from BD-PharMingen) at 4 degrees Celsius overnight or at room temperature for 2 hours. […] The membrane is rinsed with PBST, and a suitable visualization procedure is used to detect the secondary antibody (for example, horseradish peroxidase can be detected with a colorimetric substrate or by a chemiluminescent substrate such as that provided by the enhanced chemiluminescence (ECL Plus) kit from Amersham). […] Quantification of the protein signals can be carried out by densitometry, using appropriate software (ImageJ software from the National Institutes of Health).
LNCaP cells from the above described experiment were harvested at designated times, cell lysate was prepared for Western blot analysis as described previously. A color detection method was subsequently employed to examine AR and actin protein signals in the membranes, and the resultant protein signals were quantitated by densitometry. In FIG. 4B, normalized AR signals (as relative to actin protein) are reported, which were expressed as a percentage of baseline (Day 0) value. […]
Cells were then harvested and AR protein was quantified by Western blot.

Assay [3] deals with acne-affected skin. As to the kind of experiment: Topical treatment of acne in human volunteers. Format: in vivo. Here is the method:
In this example, human subjects were successfully treated for acne by topical administration of a cream containing the compound ASC-J15 or ASC-J9, which were shown in the previous examples to ameliorate the effects of the androgen receptor-activated pathway, specifically by inducing degradation of the androgen receptor. A basic carrier formulation was prepared by mixing two solutions: (1) a water-based solution containing aristoflex avc, Osmocide, Tween 20, and water; and (2) an oil-based solution containing isopropyl myristate, coconut dienthanolamine, ethylparaben, isobutylparaben, methylparaben, and propylparaben. […]
Male and female human volunteers ranging in age from 15 years to 52 years were treated by topical application of the test compounds to the acne-affected skin. Subjects were asked to apply the cream to the acne-affected areas twice a day (once in the morning and once in the evening). […] The results are given in Table 2, and a representative result (photo pictures) from one volunteer is depicted in FIG. 14. FIG. 14A depicts the volunteer's forehead and FIG. 14B depicts the volunteer's back.

T1 sequence (P10275 with tags, fused parts or gaps with the stated changes): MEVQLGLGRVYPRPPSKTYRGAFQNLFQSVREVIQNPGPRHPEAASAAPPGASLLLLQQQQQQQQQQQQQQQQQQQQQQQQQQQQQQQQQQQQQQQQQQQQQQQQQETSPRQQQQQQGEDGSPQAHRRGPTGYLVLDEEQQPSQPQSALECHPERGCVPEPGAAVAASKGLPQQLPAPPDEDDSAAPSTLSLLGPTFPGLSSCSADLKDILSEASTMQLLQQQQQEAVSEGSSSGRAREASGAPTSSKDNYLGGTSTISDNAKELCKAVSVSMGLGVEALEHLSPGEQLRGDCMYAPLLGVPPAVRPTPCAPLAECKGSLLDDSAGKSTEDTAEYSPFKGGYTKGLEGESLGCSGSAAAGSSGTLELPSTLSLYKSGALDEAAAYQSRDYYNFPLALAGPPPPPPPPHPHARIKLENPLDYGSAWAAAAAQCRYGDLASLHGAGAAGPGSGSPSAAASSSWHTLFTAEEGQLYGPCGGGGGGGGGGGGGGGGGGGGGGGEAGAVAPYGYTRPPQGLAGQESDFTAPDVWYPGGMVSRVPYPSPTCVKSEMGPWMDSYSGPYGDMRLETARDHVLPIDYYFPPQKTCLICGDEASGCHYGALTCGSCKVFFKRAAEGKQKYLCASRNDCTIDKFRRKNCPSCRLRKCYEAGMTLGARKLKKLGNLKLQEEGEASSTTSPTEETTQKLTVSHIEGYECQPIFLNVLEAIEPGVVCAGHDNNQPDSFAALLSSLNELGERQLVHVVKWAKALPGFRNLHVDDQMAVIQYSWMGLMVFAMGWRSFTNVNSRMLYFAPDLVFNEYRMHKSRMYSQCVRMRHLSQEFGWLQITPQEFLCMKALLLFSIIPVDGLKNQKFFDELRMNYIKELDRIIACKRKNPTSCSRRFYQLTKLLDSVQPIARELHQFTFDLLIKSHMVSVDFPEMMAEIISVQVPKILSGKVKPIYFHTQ

On to `COc1ccc(C=CC(=O)C=C(O)C=Cc2ccc(OC)c(OC)c2)cc1OC` [ASC-J9, 5-hydroxy-1,7-bis(3,4-dimethoxyphenyl)-1,4,6-heptatrien-3-one], for which the “fluorescent inclusions or aggregates of mutant poly Q49 AR” value in assay [1] is listed as “substantially smaller amounts of fluorescent inclusions”. In addition, the “time at which AR reduction was first observed” value in assay [2] (5 μM, continuous incubation) turned out to be 2 days. In addition, the “AR remaining, normalized AR signal as percentage of baseline (Day 0)” value in assay [2] (5 μM, end of 5-day incubation) was ~10%. The “AR protein, ARD enhancer compared with conventional anti-androgens” value in assay [2] (48 hours, Western blot (FIG. 7B)) is “decreased AR protein”. Moreover, the “Recovery Time” value in assay [3] (topical cream 1 micromolar, one line per subject (age, sex, frequency in Table 2)) is 2 weeks and 1 week weeks; in assay [3] (topical cream 2.5 micromolar, twice a day, subject 24), 1 week. For the same compound, the “skin condition of acne-affected male volunteers (photographs)” value in assay [3] (topical, 2.5 micromolar forehead (FIG. 14A), 625 μM back (FIG. 14B)) is “visible improvement to skin condition”.
